Experimental data taken from patent US20050150764A1 (priority 2001, published 2005).
Where two headings read alike, the source gives them in different places. One block for each compound: values may come before it.

Experiments:
[1] = logP (pH 2); conditions: for logP (pH 2): intermediates of formula (VIIa), Table 6
[2] = system: adult Musca domestica, strain: Reichswald (OP, SP, carbamate resistant); assay: Test with flies (Musca domestica) (Example H); assay type: in vivo
Procedure: Test with Flies (Musca domestica)
(§1) 20 mg of active substance are dissolved in 1 ml of dimethyl sulphoxide; lower concentrations are prepared by dilution with distilled water.
[…] After the filter disks have dried, 25 test organisms are transferred to the Petri dishes and covered.
The activity of the active compound preparation is determined after 1, 3, 5, 24 and 48 hours. 100% means that all the flies were killed; 0% means that none of the flies was killed.

[3] = system: caterpillars of the army worm (Spodoptera frugiperda); assay: Spodoptera frugiperda test (Example E); assay type: in vivo; conditions: 1000 ppm, after 7 days, cabbage leaves dipped
Procedure: (§2) Spodoptera frugiperda Test [table] To produce a suitable preparation of active compound, 1 part by weight of active compound is mixed with the stated amounts of solvent and emulsifier, and the concentrate is diluted with emulsifier-containing water to the desired concentration. Cabbage leaves (Brassica oleracea) are treated by being dipped into the preparation of active compound at the desired concentration and are populated with caterpillars of the army worm (Spodoptera frugiperda) while the leaves are still moist. After the desired period of time, the kill in % is determined. 100% means that all of the caterpillars have been killed: 0% denotes that no caterpillars have been killed.

[4] = system: Lucilia cuprina larvae; assay: Blowfly larvae test/development inhibition activity (Example I); assay type: in vivo; conditions: 100% = no flies hatched
Procedure: Blowfly Larvae Test/Development Inhibition Activity
as §1
About 20 Lucilia cuprina larvae are introduced into a test tube containing 1 cm^3 of horse meat and 0.5 ml of the test preparation of active compound. The efficacy of the active compound preparation is determined after 24 and 48 hours. The test tubes are transferred to beakers whose bases are covered with sand. After 2 more days, the test tubes are removed and the pupae are counted.
The activity of the active compound preparation is assessed in accordance with the number of flies which have hatched following 1.5 times the development period of an untreated control. 100% means that no flies have hatched; 0% means that all of the flies hatched normally.

[5] = system: larvae of the mustard beetle (Phaedon cochleariae); assay: Phaedon larvae test (Example B); assay type: in vivo; conditions: 1000 ppm, after 7 days, cabbage leaves dipped
Procedure: as §2, with “Phaedon larvae Test” for “Spodoptera frugiperda Test”, “with larvae” for “with caterpillars”, “the mustard beetle (Phaedon cochleariae)” for “the army worm (Spodoptera frugiperda)”, “the beetle larvae” for “the caterpillars”, “no beetle larvae” for “no caterpillars”

[6] = Concentration 4 μg fly, reading time not given
[7] = Concentration 20 μg fly, reading time not given
[8] = Concentration 100 μg fly, reading time not stated (1, 3, 5, 24 and 48 hours in method)

logP (pH 2)/ m.p. [° C.] (logP part): 4.37/194
SMILES: O=C(Nc1ccc(C(F)(F)F)cc1)N1CCC(n2cc(Cl)cn2)C(c2cccc(F)c2)=N1 (stereo not drawn) [Example 4]
kill [3]: 100%
kill [5]: 100%

logP (pH 2)/ m.p. [° C.] (logP part): 4.49/203
SMILES: O=C(Nc1ccc(Cl)cc1)N1CCC(n2cc(Cl)cn2)C(c2cccc(Cl)c2)=N1 (stereo not drawn) [Example 8]
kill [3]: 100%
kill [5]: 100%

logP (pH 2)/ m.p. [° C.] (logP part): 4.73/158
SMILES: O=C(Nc1ccc(Cl)cc1)N1CCC(n2cc(Cl)cn2)C(c2cccc(OC(F)(F)F)c2)=N1 (stereo not drawn) [Example 10]
kill [3]: 100%
kill [5]: 100%

logP (pH 2)/ m.p. [° C.] (logP part): 4.58/198
SMILES: O=C(Nc1ccc(Cl)cc1)N1CCC(n2cc(Cl)cn2)C(c2cccc(Br)c2)=N1 (stereo not drawn) [Example 11]
kill [3]: 100%
kill [5]: 100%

logP (pH 2)/ m.p. [° C.] (logP part): 4.82/197
SMILES: O=C(Nc1ccc(OC(F)(F)F)cc1)N1CCC(n2cc(Cl)cn2)C(c2cccc(Br)c2)=N1 (stereo not drawn) [Example 12]
kill [3]: 100%
kill [5]: 100%

logP (pH 2)/ m.p. [° C.] (logP part): 4.03/229
SMILES: N#Cc1cccc(C2=NN(C(=O)Nc3ccc(C(F)(F)F)cc3)CCC2n2cc(Cl)cn2)c1 (stereo not drawn) [Example 16]
kill [3]: 100%
kill [5]: 100%

logP (pH 2)/ m.p. [° C.] (logP part): 3.90/228
SMILES: N#Cc1cnn(C2CCN(C(=O)Nc3ccc(Cl)cc3)N=C2c2cccc(Cl)c2)c1 (stereo not drawn) [Example 18]

logP (pH 2)/ m.p. [° C.] (logP part): 4.15/186
SMILES: N#Cc1cnn(C2CCN(C(=O)Nc3ccc(OC(F)(F)F)cc3)N=C2c2cccc(Cl)c2)c1 (stereo not drawn) [Example 19]

logP (pH 2)/ m.p. [° C.] (logP part): 3.77
SMILES: N#Cc1ccc(NC(=O)N2CCC(n3cc(Cl)cn3)C(c3cccc(Cl)c3)=N2)cc1 (stereo not drawn) [Example 20]

logP (pH 2)/ m.p. [° C.] (logP part): 4.53/194
SMILES: N#Cc1cnn(C2CCN(C(=O)Nc3ccc(SC(F)(F)F)cc3)N=C2c2cccc(Cl)c2)c1 (stereo not drawn) [Example 21]

logP (pH 2)/ m.p. [° C.] (logP part): 3.96/213
SMILES: N#Cc1cnn(C2CCN(C(=O)Nc3ccc(Cl)cc3)N=C2c2cccc(Br)c2)c1 (stereo not drawn) [Example 22]

logP (pH 2)/ m.p. [° C.] (logP part): 4.64/206
SMILES: N#Cc1cnn(C2CCN(C(=O)Nc3ccc(SC(F)(F)F)cc3)N=C2c2cccc(Br)c2)c1 (stereo not drawn) [Example 24]

logP (pH 2)/ m.p. [° C.] (logP part): 4.24/192
SMILES: N#Cc1cnn(C2CCN(C(=O)Nc3ccc(OC(F)(F)F)cc3)N=C2c2cccc(Br)c2)c1 (stereo not drawn) [Example 25]

logP (pH 2)/ m.p. [° C.] (logP part): 3.94/242
SMILES: N#Cc1cccc(C2=NN(C(=O)Nc3ccc(SC(F)(F)F)cc3)CCC2n2cc(C#N)cn2)c1 (stereo not drawn) [Example 26]

logP (pH 2)/ m.p. [° C.] (logP part): 4.18/244
SMILES: N#Cc1cnn(C2CCN(C(=O)Nc3ccc(C(F)(F)F)cc3)N=C2c2cccc(Br)c2)c1 (stereo not drawn) [Example 27]

logP (pH 2)/ m.p. [° C.] (logP part): 4.03
SMILES: N#Cc1cnn(C2CCN(C(=O)Nc3ccc(Br)cc3)N=C2c2cccc(Cl)c2)c1 (stereo not drawn) [Example 28]

logP (pH 2)/ m.p. [° C.] (logP part): 3.62/239
SMILES: N#Cc1cccc(C2=NN(C(=O)Nc3ccc(OC(F)(F)F)cc3)CCC2n2cc(C#N)cn2)c1 (stereo not drawn) [Example 29]

logP (pH 2): 3.09
SMILES: FC(F)(F)c1cccc(C2=NNCCC2n2cc(Cl)cn2)c1 (stereo not drawn) [II-2]

logP (pH 2): 2.59
SMILES: Fc1cccc(C2=NNCCC2n2cc(Cl)cn2)c1 (stereo not drawn) [II-3]

logP (pH 2): 2.93
SMILES: Clc1cccc(C2=NNCCC2n2cc(Cl)cn2)c1 (stereo not drawn) [II-4]

logP (pH 2): 3.32
SMILES: FC(F)(F)Oc1cccc(C2=NNCCC2n2cc(Cl)cn2)c1 (stereo not drawn) [II-5]

logP (pH 2): 3.03
SMILES: Clc1cnn(C2CCNN=C2c2cccc(Br)c2)c1 (stereo not drawn) [II-6]

logP (pH 2): 2.40
SMILES: N#Cc1cnn(C2CCNN=C2c2cccc(Cl)c2)c1 (stereo not drawn) [II-7]

logP (pH 2): 2.49
SMILES: N#Cc1cnn(C2CCNN=C2c2cccc(Br)c2)c1 (stereo not drawn) [II-8]

logP (pH 2): 1.83
SMILES: N#Cc1cccc(C2=NNCCC2n2cc(C#N)cn2)c1 (stereo not drawn) [II-9]

logP (pH 2): 3.84
SMILES: O=C(c1cccc(C(F)(F)F)c1)C(CCCl)n1cc(Cl)cn1 (stereo not drawn) [IV-2]

logP (pH 2): 3.99
SMILES: O=C(c1cccc(OC(F)(F)F)c1)C(CCCl)n1cc(Cl)cn1 (stereo not drawn) [IV-5]

logP (pH 2): 3.06
SMILES: N#Cc1cnn(C(CCCl)C(=O)c2cccc(Cl)c2)c1 (stereo not drawn) [IV-7]

logP (pH 2): 3.13
SMILES: N#Cc1cnn(C(CCCl)C(=O)c2cccc(Br)c2)c1 (stereo not drawn) [IV-8]

logP (pH 2): 3.71
SMILES: O=C(CCCCl)c1cccc(OC(F)(F)F)c1 [VI-2]

Continued, compound first:

SMILES: N#Cc1cccc(C(=O)C2CCOC2=O)c1 (stereo not drawn)
logP [1]: 1.48

SMILES: O=C(Nc1ccc(Cl)cc1)N1CCC(n2cc(Cl)cn2)C(c2cccc(C(F)(F)F)c2)=N1 (stereo not drawn) [Example 2]
% Activity/Kill [2, 6]: 0%
% Activity/Kill [2, 7]: 30%
% Activity/Kill [2, 8]: 95%
kill [3]: 100%
logP (pH 2)/ m.p. [° C.] (logP part): 4.60/199
% Activity/Kill ([4]; Concentration 4 ppm): 0%
% Activity/Kill ([4]; Concentration 20 ppm): 100%
% Activity/Kill ([4]; Concentration 100 ppm): 100%
kill [5]: 100%

SMILES: O=C(Nc1ccc(OC(F)(F)F)cc1)N1CCC(n2cc(Cl)cn2)C(c2cccc(C(F)(F)F)c2)=N1 (stereo not drawn) [Example 3]
% Activity/Kill [2, 6]: 0%
% Activity/Kill [2, 7]: 50%
% Activity/Kill [2, 8]: 95%
kill [3]: 100%
logP (pH 2)/ m.p. [° C.] (logP part): 4.83/192
% Activity/Kill ([4]; Concentration 4 ppm): 0%
% Activity/Kill ([4]; Concentration 20 ppm): 100%
% Activity/Kill ([4]; Concentration 100 ppm): 100%
kill [5]: 100%

SMILES: O=C(Nc1ccc(Cl)cc1)N1CCC(n2cc(Cl)cn2)C(c2cccc(F)c2)=N1 (stereo not drawn) [Example 5]
kill [3]: 100%
logP (pH 2)/ m.p. [° C.] (logP part): 4.18/213
% Activity/Kill ([4]; Concentration 20 ppm): 0%
% Activity/Kill ([4]; Concentration 100 ppm): 100%
kill [5]: 100%

SMILES: O=C(Nc1ccc(OC(F)(F)F)cc1)N1CCC(n2cc(Cl)cn2)C(c2cccc(F)c2)=N1 (stereo not drawn) [Example 6]
% Activity/Kill [2, 6]: 0%
% Activity/Kill [2, 7]: 50%
% Activity/Kill [2, 8]: 99%
kill [3]: 100%
logP (pH 2)/ m.p. [° C.] (logP part): 4.43/148
% Activity/Kill ([4]; Concentration 20 ppm): 0%
% Activity/Kill ([4]; Concentration 100 ppm): 100%
kill [5]: 100%

SMILES: O=C(Nc1ccc(OC(F)(F)F)cc1)N1CCC(n2cc(Cl)cn2)C(c2cccc(Cl)c2)=N1 (stereo not drawn) [Example 7]
% Activity/Kill [2, 6]: 0%
% Activity/Kill [2, 7]: 50%
% Activity/Kill [2, 8]: 99%
kill [3]: 100%
logP (pH 2)/ m.p. [° C.] (logP part): 4.73/181
% Activity/Kill ([4]; Concentration 4 ppm): 0%
% Activity/Kill ([4]; Concentration 20 ppm): 100%
% Activity/Kill ([4]; Concentration 100 ppm): 100%
kill [5]: 100%

SMILES: O=C(Nc1ccc(C(F)(F)F)cc1)N1CCC(n2cc(Cl)cn2)C(c2cccc(Cl)c2)=N1 (stereo not drawn) [Example 9]
% Activity/Kill [2, 6]: 0%
% Activity/Kill [2, 7]: 85%
% Activity/Kill [2, 8]: 95%
kill [3]: 100%
logP (pH 2)/ m.p. [° C.] (logP part): 4.69/199
% Activity/Kill ([4]; Concentration 20 ppm): 0%
% Activity/Kill ([4]; Concentration 100 ppm): 100%
kill [5]: 100%

SMILES: O=C(Nc1ccc(SC(F)(F)F)cc1)N1CCC(n2cc(Cl)cn2)C(c2cccc(C(F)(F)F)c2)=N1 (stereo not drawn) [Example 23]
% Activity/Kill [2, 7]: 0%
% Activity/Kill [2, 8]: 90%
logP (pH 2)/ m.p. [° C.] (logP part): 5.21/188
% Activity/Kill ([4]; Concentration 20 ppm): 0%
% Activity/Kill ([4]; Concentration 100 ppm): 100%

SMILES: N#Cc1cccc(C(=O)C(Br)CCCl)c1 (stereo not drawn) [Example V-1, 3′-cyano-2-bromo-4-chlorobutyrophenone]
logP [1]: 3.09

SMILES: O=C(c1cccc(F)c1)C(Br)CCCl (stereo not drawn) [Example V-2]
logP (pH 2): 3.47

SMILES: O=C(c1cccc(OC(F)(F)F)c1)C(Br)CCCl (stereo not drawn) [Example V-3]
logP (pH 2): 4.19

SMILES: O=C(c1cccc(Br)c1)C(Br)CCCl (stereo not drawn) [Example V-4]
logP (pH 2): 4.02

SMILES: N#Cc1cccc(C(=O)C(CCCl)n2cc(Cl)cn2)c1 (stereo not drawn) [IV-1, 3′-cyano-2-(4-chloropyrazol-1-yl)-4-chlorobutyrophenone]
logP [1]: 2.95

SMILES: O=C(c1cccc(F)c1)C(CCCl)n1cc(Cl)cn1 (stereo not drawn) [IV-3]
logP (pH 2): 3.31

SMILES: O=C(c1cccc(Cl)c1)C(CCCl)n1cc(Cl)cn1 (stereo not drawn) [IV-4]
logP (pH 2): 3.68

SMILES: O=C(c1cccc(Br)c1)C(CCCl)n1cc(Cl)cn1 (stereo not drawn) [IV-6]
logP (pH 2): 3.78

SMILES: N#Cc1cccc(C(=O)C(CCCl)n2cc(C#N)cn2)c1 (stereo not drawn) [IV-9]
logP (pH 2): 2.41

SMILES: N#Cc1cccc(C(=O)CCCCl)c1 [VI-1, 3′-cyano-4-chlorobutyrophenone]
logP [1]: 2.49

SMILES: O=C(CCCCl)c1cccc(Br)c1 [VI-3]
logP (pH 2): 3.50

SMILES: O=C1OCCC1C(=O)c1cccc(C(F)(F)F)c1 (stereo not drawn) [VIIa-2]
logP (pH 2) [1]: 2.42

SMILES: O=C1OCCC1C(=O)c1cccc(F)c1 (stereo not drawn) [VIIa-3]
logP (pH 2) [1]: 1.77

SMILES: O=C1OCCC1C(=O)c1cccc(OC(F)(F)F)c1 (stereo not drawn) [VIIa-4]
logP (pH 2): 2.59

SMILES: O=C1OCCC1C(=O)c1cccc(Br)c1 (stereo not drawn) [Vlla-5]
logP (pH 2): 2.22
